Test results taken from PMC7862291, “Full-length in meso structure and mechanism of rat kynurenine 3-monooxygenase inhibition” (Communications Biology, 2021).
pKd: −log10 of the molar value. Where two headings read alike, the source gives them in different places.

Columns and labels:
hKMO = target: T1, hKMO (Homo sapiens, UniProt O15229); assay: Surface plasmon resonance; assay type: binding; conditions: SPR, immobilised hKMO, single-cycle kinetics
T1 construct: purchased Origene
Experimental: Surface plasmon resonance experiments were performed using a Biacore 8K+ (GE Healthcare) instrument. A 20-μg/mL concentration of hKMO (Origene) was immobilised on a Series S Sensor Chip CM5 (GE Healthcare) by NHS/EDC amine coupling. The Rmax was 13,500 resonance units (RU) upon binding.
Five-fold serial dilutions of 50 nM compound 3 finalised in 2% DMSO were made, and run in a buffer containing HBS-P+ (GE Healthcare), 1 mM DTT, and 2% DMSO using single-cycle kinetics.
Surface plasmon resonance data were analysed using Biacore Insight Evaluation software. All fits used a simple 1:1 Langmuir binding model showing reasonable fit and low fit χ^2 values.

[1] = Pharmacokinetic (brain penetration) study in rats; assay type: in vivo; conditions: Sprague-Dawley Crl:CD(SD), rat, male SD rats, 10 mg/kg ip, 1 h after a single administration
Experimental: Brain penetration studies were conducted in non-fasted male SD rats [Sprague-Dawley rats Crl:CD(SD), 8 weeks of age]. Compound 1 was intraperitoneally (ip) administered at 10 mg/kg in a solution of saline containing 10% dimethylformamide, 10% propylene glycol, and 4% 1 normality (N) sodium hydrate. […] Blood and brain were collected at 1 h after a single administration. The test compound in plasma samples or brain samples was extracted by deproteination with acetonitrile, and then analysed using LC-MS/MS.

T1 sequence (O15229 whole entry): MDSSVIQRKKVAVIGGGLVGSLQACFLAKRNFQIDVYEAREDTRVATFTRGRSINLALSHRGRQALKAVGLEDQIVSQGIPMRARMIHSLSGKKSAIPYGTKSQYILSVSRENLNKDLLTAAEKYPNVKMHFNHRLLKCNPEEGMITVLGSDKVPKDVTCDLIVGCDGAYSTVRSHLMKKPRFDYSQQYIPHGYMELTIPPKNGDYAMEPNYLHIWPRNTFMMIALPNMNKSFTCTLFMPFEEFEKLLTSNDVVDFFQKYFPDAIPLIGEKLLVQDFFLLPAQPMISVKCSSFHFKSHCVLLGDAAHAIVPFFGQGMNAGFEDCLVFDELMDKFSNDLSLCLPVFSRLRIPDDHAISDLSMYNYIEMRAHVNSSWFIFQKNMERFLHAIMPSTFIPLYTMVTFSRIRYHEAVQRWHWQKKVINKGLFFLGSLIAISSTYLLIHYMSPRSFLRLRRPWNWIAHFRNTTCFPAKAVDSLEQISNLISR

Row | pKd (hKMO) | koff (hKMO) | kon (hKMO) | Kp at 1 h ([1]; brain/plasma) | concentration at 1 h ([1]; brain, read-out: Exposure in brain) | concentration at 1 h ([1]; plasma, read-out: Exposure in plasma) | Structure (SMILES)
1 | 10.41 | 2.1e-05 s⁻¹ | 540000 M⁻¹ s⁻¹ | – | – | – | Cc1cnn(-c2ccc(OCc3ccccc3)c(C(=O)O)c2)c1-c1ccc(Cl)c(F)c1 [Compound 3]
2 | – | – | – | 0.029 | 25.4 ng/g | 869 ng/mL | Cc1cnn(-c2cccc(C(=O)O)c2)c1-c1ccccc1 [Compound 1]
